How the values were obtained:
[1] = target: T1, A2BAR (Rattus norvegicus, UniProt P29276); assay: cAMP accumulation assay in H9C2 cells endogenously expressing the A2BAR; type: cell-based
T1 sequence (P29276 1-332): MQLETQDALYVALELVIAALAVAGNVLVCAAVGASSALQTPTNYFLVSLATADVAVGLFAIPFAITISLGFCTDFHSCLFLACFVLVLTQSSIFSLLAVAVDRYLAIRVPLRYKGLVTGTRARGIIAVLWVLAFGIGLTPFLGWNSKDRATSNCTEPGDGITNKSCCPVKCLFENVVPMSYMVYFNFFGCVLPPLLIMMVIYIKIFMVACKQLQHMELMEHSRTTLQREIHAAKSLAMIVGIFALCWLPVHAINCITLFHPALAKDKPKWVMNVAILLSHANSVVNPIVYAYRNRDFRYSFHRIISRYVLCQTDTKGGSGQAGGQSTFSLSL

[2] = target: T2, A1AR (Rattus norvegicus, UniProt P25099); assay: A1AR-mediated inhibition of forskolin-stimulated cAMP accumulation in H9C2 cells; type: cell-based
T2 sequence (P25099 1-326): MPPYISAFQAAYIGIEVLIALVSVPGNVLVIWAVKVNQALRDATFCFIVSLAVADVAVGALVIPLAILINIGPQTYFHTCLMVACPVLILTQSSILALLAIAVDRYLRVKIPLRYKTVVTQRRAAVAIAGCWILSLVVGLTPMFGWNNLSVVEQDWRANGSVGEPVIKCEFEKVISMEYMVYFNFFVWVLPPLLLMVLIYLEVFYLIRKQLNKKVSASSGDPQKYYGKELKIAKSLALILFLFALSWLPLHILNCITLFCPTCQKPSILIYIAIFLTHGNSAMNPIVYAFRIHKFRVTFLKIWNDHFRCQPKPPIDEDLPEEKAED

[3] = target: T3, A2BAR (Homo sapiens, UniProt P29275); assay: cAMP accumulation assay in naive HEK293 cells; type: cell-based
T3 sequence (P29275 1-332): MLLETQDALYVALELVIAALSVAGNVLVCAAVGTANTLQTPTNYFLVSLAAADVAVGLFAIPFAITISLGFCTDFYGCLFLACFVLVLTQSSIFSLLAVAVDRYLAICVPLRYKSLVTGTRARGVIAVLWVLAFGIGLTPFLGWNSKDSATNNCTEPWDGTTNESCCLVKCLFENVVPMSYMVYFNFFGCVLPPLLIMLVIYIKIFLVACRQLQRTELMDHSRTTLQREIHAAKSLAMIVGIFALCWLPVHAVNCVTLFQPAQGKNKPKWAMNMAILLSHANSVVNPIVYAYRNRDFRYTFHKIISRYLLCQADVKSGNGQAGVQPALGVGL

[4] = target: T3, A2BAR; assay: cAMP accumulation assay in HEK293-A2B cells; type: cell-based; details: HEK293-A2B cells
[5] = tested on: PKCα; details: reported selectivity profile, ref not given; cited from earlier work
[6] = tested on: PKCβI; details: reported selectivity profile, ref not given; cited from earlier work
[7] = tested on: ERK1/2; assay: ERK1/2 activity assay in H9C2 cells; type: cell-based, rat; details: 1 μM added 20 min before PMA 1 μM
[8] = target: T3, A2BAR; assay: Intracellular calcium mobilization assay in HEK293-A2B cells; type: cell-based; details: GO6983 1 μM before PMA 1 μM
[9] = tested on: H9C2 cells; assay: Intracellular calcium mobilization assay in H9C2 cells; type: cell-based, rat; details: GO6983 1 μM 20 min before PMA 1 μM
[10] = target: T3, A2BAR; assay: Radioligand binding to membranes from HEK293-A2B cells; details: membranes from HEK293-A2B cells, 1 μM
[11] = naive HEK293 cells, inhibitor 1 μM, PMA 1 μM, BAY 10 μM
[12] = inhibitor 20 min before PMA (Figure 10C)

SMILES: N#Cc1c(N)nc(SCC(N)=O)c(C#N)c1-c1ccc(OCC2CC2)cc1 [BAY]
- induction of cAMP accumulation ([1]; H9C2 cells, agonist 20 min): induced robust cAMP accumulation

SMILES: OC1C(CCl)OC(n2cnc3c(NC4CC5CCC4C5)ncnc32)C1O (stereo not drawn) [Cl-ENBA]
- inhibited cAMP accumulation stimulated by forskolin ([2]; 1 μM, forskolin 10 μM): neither
- inhibition of forskolin's effect on cAMP ([2]; range of concentrations (Figure S1)): unable to inhibit forskolin’s effect

SMILES: CN(C)CCCn1cc(C2=C(c3c[nH]c4ccccc34)C(=O)NC2=O)c2ccccc21 [GF109203X]
- remaining enhancement ([3]; naive HEK293 cells, in the presence of 1 μM GF109203X): 26%
- effect on PKC (PMA)-induced enhancement of BAY-induced cAMP accumulation [3, 11]: blocked PKC-induced enhancement
- inhibition of PKC-induced enhancement of BAY-induced cAMP accumulation [3, 11]: 74%
- effect on PKC-induced A2BAR activation (cAMP) [4, 12]: significantly inhibited

SMILES: Cn1c2ccccc2c2c3c(c4c5ccccc5n(CCC#N)c4c21)CNC3=O [GO6976]
- effect on PKC (PMA)-induced enhancement of BAY-induced cAMP accumulation [3, 11]: modest but significant inhibition
- IC50 [5]: 2.3 nM
- effect on PKC-induced A2BAR activation (cAMP) ([4]; inhibitor 30 nM): lack of inhibition
- IC50 [6]: 6.2 nM

SMILES: COc1ccc2c(c1)c(C1=C(c3c[nH]c4ccccc34)C(=O)NC1=O)cn2CCCN(C)C [GO6983]
- effect on PKC (PMA)-induced enhancement of BAY-induced cAMP accumulation [3, 11]: blocked PKC-induced enhancement
- effect on BAY-induced cAMP accumulation ([1]; H9C2 cells, 1 μM, no PMA): did not affect BAY-induced cAMP accumulation
- effect on PMA-induced ERK1/2 phosphorylation [7]: diminished
- effect on PKC- and NECA-induced cAMP accumulation ([4]; GO6983 1 μM): blocked PKC- but not NECA-induced cAMP accumulation
- effect on PKC-induced A2BAR activation (cAMP) [4, 12]: significantly inhibited
- effect on PMA inhibition of NECA-induced calcium mobilization [8]: completely blocked
- effect on PMA inhibition of UTP calcium response [9]: completely reversed

SMILES: O=S(=O)(NCCNC/C=C/c1ccc(Br)cc1)c1cccc2cnccc12 [H89]
- effect on PMA enhancement of cAMP accumulation ([3]; HEK293 cells, H89 10 μM, PMA 1 μM): unaffected
- effect on PMA-induced ERK1/2 phosphorylation [7]: not affected

SMILES: CCCn1c(=O)c2[nH]c(-c3ccc(OCC(=O)Nc4ccc(C#N)cc4)cc3)nc2n(CCC)c1=O [MRS1754]
- effect on PMA-induced cAMP accumulation ([1]; naive H9C2 cells, antagonist 1 µM): inhibited
- KB against BAY more potent than IC50 against PKC [4]: over 100 fold
- displacement of specific binding of [3H]NECA (25 nM) [10]: 100%

SMILES: CSc1nc(N)c2ncn([C@H]3[C@H](O)[C@H](O)[C@]4(COP(=O)([O-])OP(=O)([O-])[O-])C[C@H]34)c2n1.[Na+].[Na+].[Na+] [MRS2365, [[(1R,2R,3S,4R,5S)-4-[6-amino-2-(methylthio)-9H-purin-9-yl]-2,3-dihydroxybicyclo[3.1.0]hex-1-yl]methyl] diphosphoric acid monoester trisodium salt]
- effect of pretreatment on A2BAR (NECA)-mediated cAMP accumulation ([4]; 1 μM, 20 min before NECA): did not show any effect
